Twelve compounds from ChEMBL document CHEMBL1201862, “PubChem BioAssay data set” (2004) can be followed below.

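Protocol summary: plate cells (96-well), add compound at 5 concentrations, incubate 48 h, interpolate endpoints linearly. GI50 marks 50% less growth.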 Active and inactive are the calls of the source. Rule as the data show it: active = GI50 up to about 1.1 µM and inactive = higher. Where a SMILES comes first, the peptide text is derived from it. [ ]: non-standard residue; d: D form. The star is where a group is joined. Chg = N[CH](C(=O)O)C1CCCCC1; Cbz = O=C(OCc1ccccc1)*; OBn = c1ccc(CO*)cc1

Among the test systems are BT-549; Malme-3M; UACC-62; HT-29; SF-268; OVCAR-5; SW-620; MCF7; NCI-H460; DU-145; OVCAR-3; HOP-62; CAKI-1; RXF 393; UACC-257; NCI/ADR-RES; PC-3; M14; SK-MEL-5; T47D.
Holding throughout (assay): growth of human tumour cells (NCI), 48 h

In the case of `Cc1cccc2nc3n(c12)C(=O)c1ccccc1-3`, the GI50 with BT-549, with Malme-3M, in the experiment on UACC-62, with HT-29, in the experiment with SF-268 and with OVCAR-5 was > 100 µM (inactive) each time. In addition, the GI50 was > 100 µM (inactive) with SW-620; > 100 µM (inactive) in the experiment with MCF7; > 100 µM (inactive) in the experiment with NCI-H460; 44.4 µM (inactive) with DU-145; > 100 µM (inactive) in the experiment on OVCAR-3; > 100 µM (inactive) in the experiment with HOP-62. Also, the GI50 in the experiment with CAKI-1, with RXF 393, with UACC-257, in the experiment on NCI/ADR-RES and in the experiment on PC-3 was > 100 µM (inactive) each time.
As for `CC(C)c1ccc2nc3ccc(C(=O)NCCN4CCN(c5ccccc5)CC4)cn3c(=O)c2c1`, the GI50 was 6.3 µM (inactive) in the experiment on BT-549; 1.85 µM (inactive) in the experiment with Malme-3M; 3.87 µM (inactive) in the experiment with UACC-62; 4.06 µM (inactive) in the experiment with HT-29; > 100 µM (inactive) in the experiment on SF-268; > 100 µM (inactive) in the experiment on OVCAR-5. The GI50 was 8.49 µM (inactive) in the experiment on SW-620; 2.87 µM (inactive) in the experiment on M14; 10 µM (inactive) with MCF7; 4.3 µM (inactive) in the experiment with NCI-H460; > 100 µM (inactive) in the experiment on DU-145; > 100 µM (inactive) in the experiment on OVCAR-3. Also, the GI50 is 2.58 µM (inactive) in the experiment on SK-MEL-5; 6.31 µM (inactive) with HOP-62; 5.06 µM (inactive) in the experiment on CAKI-1; 4.67 µM (inactive) with UACC-257; 3.57 µM (inactive) in the experiment on NCI/ADR-RES; 2.37 µM (inactive) in the experiment with PC-3.
As to `CCOC(=O)Cn1c(=O)c2nc(SC)sc2n(-c2ccccc2)c1=S`, the GI50 is 18.8 µM (inactive) in the experiment with Malme-3M; < 0.01 µM (active) in the experiment with UACC-62; > 100 µM (inactive) in the experiment with HT-29; 32.4 µM (inactive) in the experiment on SF-268; 93.3 µM (inactive) with OVCAR-5; 50.4 µM (inactive) with SW-620. For the same compound, the GI50 in the experiment with M14 was 32.5 µM (inactive); with MCF7, > 100 µM (inactive); in the experiment with NCI-H460 it was 30.1 µM (inactive); in the experiment on DU-145 it was > 100 µM (inactive); with OVCAR-3 it was 26.6 µM (inactive); with SK-MEL-5, > 100 µM (inactive). Also, the GI50 is 19.9 µM (inactive) with HOP-62; 21 µM (inactive) with RXF 393; 40.8 µM (inactive) with T47D; > 100 µM (inactive) in the experiment with UACC-257; 36.7 µM (inactive) with NCI/ADR-RES; 26.2 µM (inactive) in the experiment with PC-3.
For the compound `COc1ccc2c(c1)CCCN1CCc3ccccc3C21` (stereo not given), the GI50 is 37.2 µM (inactive) in the experiment on Malme-3M; 32.5 µM (inactive) with UACC-62; 33.3 µM (inactive) with HT-29; 39.9 µM (inactive) in the experiment on SF-268; 70.3 µM (inactive) in the experiment on OVCAR-5; 67.8 µM (inactive) in the experiment with SW-620. Moreover, the GI50 with M14 is 20.4 µM (inactive); in the experiment on MCF7, 69.7 µM (inactive); in the experiment on NCI-H460, 56.1 µM (inactive); in the experiment on DU-145, > 100 µM (inactive); in the experiment with OVCAR-3, 30.2 µM (inactive); in the experiment with SK-MEL-5, 33.8 µM (inactive). Besides, the GI50 is 37.9 µM (inactive) with HOP-62; 74.5 µM (inactive) in the experiment on CAKI-1; 25.9 µM (inactive) in the experiment with RXF 393; 77.3 µM (inactive) in the experiment with T47D; 47.8 µM (inactive) in the experiment with UACC-257; 16.8 µM (inactive) in the experiment with NCI/ADR-RES. For the same compound, the GI50 with PC-3 is 41.5 µM (inactive).
Take `CC(=O)CC(=O)NC=O`: the GI50 in the experiment on Malme-3M, in the experiment on UACC-62, in the experiment with HT-29, in the experiment with SF-268, in the experiment with OVCAR-5 and in the experiment with SW-620 was > 100 µM (inactive) in each case. Moreover, the GI50 in the experiment on M14, in the experiment on NCI-H460, with OVCAR-3, with SK-MEL-5, with HOP-62 and with CAKI-1 was > 100 µM (inactive) in each case. The GI50 in the experiment with RXF 393 and in the experiment with UACC-257 was > 100 µM (inactive) each time.
Turning to `CC[C@@H]1OC2(C)CC(S(=O)(=O)c3ccccc3)CC1O2` (stereo not given in full), the GI50 in the experiment on Malme-3M, in the experiment with UACC-62, with HT-29, with SF-268, with OVCAR-5 and in the experiment with SW-620 was > 100 µM (inactive) throughout. Further, the GI50 in the experiment with M14 was > 100 µM (inactive); in the experiment on NCI-H460, > 100 µM (inactive); in the experiment with OVCAR-3 it was > 100 µM (inactive); in the experiment on SK-MEL-5, > 100 µM (inactive); in the experiment on HOP-62, > 100 µM (inactive); with CAKI-1, < 0.01 µM (active). Further, the GI50 in the experiment with RXF 393 and in the experiment with UACC-257 was > 100 µM (inactive) in each case.
`CN1COCc2cc3cc4c(cc3nc21)OCCO4`: the GI50 in the experiment with BT-549 was 87.3 µM (inactive); in the experiment on Malme-3M, 30 µM (inactive); with UACC-62 it was > 100 µM (inactive); in the experiment on HT-29, > 100 µM (inactive); in the experiment with SF-268, > 100 µM (inactive); in the experiment with OVCAR-5, > 100 µM (inactive). Moreover, the GI50 was > 100 µM (inactive) in the experiment on SW-620; > 100 µM (inactive) in the experiment with M14; 21.2 µM (inactive) in the experiment on MCF7; 44.8 µM (inactive) in the experiment on NCI-H460; 39.5 µM (inactive) in the experiment with SK-MEL-5; > 100 µM (inactive) in the experiment on HOP-62. For the same compound, the GI50 is 94.6 µM (inactive) with CAKI-1; > 100 µM (inactive) in the experiment on RXF 393; > 100 µM (inactive) in the experiment with UACC-257; > 100 µM (inactive) with NCI/ADR-RES; 91.8 µM (inactive) in the experiment with PC-3.
On to `CC1(C)CCC(C)(C)C1C(=O)NC(O)C(=O)O` (stereo not given), for which the GI50 in the experiment on UACC-62, with SF-268, with OVCAR-5, with SW-620, in the experiment on M14 and with MCF7 was > 100 µM (inactive) in each case. Moreover, the GI50 with NCI-H460, with DU-145, with SK-MEL-5, in the experiment on HOP-62, in the experiment with T47D and in the experiment on NCI/ADR-RES was > 100 µM (inactive) each time. In addition, the GI50 with PC-3 was > 100 µM (inactive).
Consider `CN(C)c1ccc(/C=C(/NC(=O)c2ccccc2)c2nc3cc(Cl)ccc3[nH]2)cc1`, for which the GI50 with Malme-3M is 23.1 µM (inactive); in the experiment on UACC-62, 36 µM (inactive); in the experiment on HT-29, 28.6 µM (inactive); with SF-268 it was > 100 µM (inactive); with OVCAR-5, 26 µM (inactive); with SW-620, 10.4 µM (inactive). The GI50 in the experiment with M14 was 32.7 µM (inactive); with NCI-H460 it was 33.6 µM (inactive); in the experiment on OVCAR-3 it was 0.0123 µM (active); in the experiment on SK-MEL-5, 21.6 µM (inactive); with HOP-62, > 100 µM (inactive); in the experiment with CAKI-1, 61.7 µM (inactive). Besides, the values for the GI50 with RXF 393 and in the experiment with UACC-257 were 30.2 µM (inactive) and 20.3 µM (inactive), respectively.
Take `Clc1c(C(Cl)(Cl)Cl)nsc1N1CCCCC1`: the GI50 in the experiment on BT-549 was 18.3 µM (inactive); in the experiment on Malme-3M it was 13.5 µM (inactive); in the experiment on UACC-62, 22 µM (inactive); with HT-29, 16 µM (inactive); with SF-268, 34 µM (inactive); in the experiment on OVCAR-5, 33.7 µM (inactive). Further, the GI50 was 32.4 µM (inactive) in the experiment on SW-620; 21 µM (inactive) in the experiment on M14; 26.1 µM (inactive) with MCF7; 33.6 µM (inactive) in the experiment with NCI-H460; 28.4 µM (inactive) in the experiment on DU-145; 20.8 µM (inactive) with OVCAR-3. Further, the GI50 with SK-MEL-5 is 16 µM (inactive); with HOP-62 it was 23 µM (inactive); with CAKI-1, 19.4 µM (inactive); in the experiment with RXF 393, 16.8 µM (inactive); in the experiment with UACC-257 it was 23.3 µM (inactive); in the experiment with PC-3 it was 31 µM (inactive).
`CCC1(O)C(=O)OCc2c1cc1n(c2=O)Cc2cc3ccc(CO)cc3nc2-1` (stereo not given): the GI50 is 4.53 µM (inactive) in the experiment on Malme-3M; 0.757 µM (active) with UACC-62; 9.35 µM (inactive) in the experiment on HT-29; 0.995 µM (active) with SF-268; 8.97 µM (inactive) with OVCAR-5; 7.52 µM (inactive) in the experiment with SW-620. The GI50 in the experiment with M14 was 3.59 µM (inactive); in the experiment with NCI-H460 it was 1.09 µM (active); with OVCAR-3, 4.55 µM (inactive); in the experiment on SK-MEL-5, 3.08 µM (inactive); in the experiment with HOP-62 it was 0.566 µM (active); in the experiment with CAKI-1, 2.97 µM (inactive). The GI50 in the experiment with RXF 393 is 7.26 µM (inactive); in the experiment on UACC-257 it was 12.2 µM (inactive).
On to `COC(=O)C(NC(=O)C(CC(=O)OCc1ccccc1)NC(=O)OCc1ccccc1)C1CCCCC1` (stereo not given) (Cbz-Asp(OBn)-[Chg]-OMe; configuration not given here), for which the GI50 is > 100 µM (inactive) in the experiment on Malme-3M; > 100 µM (inactive) in the experiment on UACC-62; 78.3 µM (inactive) with HT-29; > 100 µM (inactive) with SF-268; > 100 µM (inactive) in the experiment with OVCAR-5; > 100 µM (inactive) in the experiment with SW-620. Moreover, the GI50 with M14 is > 100 µM (inactive); in the experiment with MCF7, > 100 µM (inactive); in the experiment on NCI-H460, > 100 µM (inactive); with DU-145, > 100 µM (inactive); in the experiment on OVCAR-3, > 100 µM (inactive); with SK-MEL-5, 0.195 µM (active). The GI50 in the experiment on HOP-62 was > 100 µM (inactive); with CAKI-1, > 100 µM (inactive); in the experiment with RXF 393 it was > 100 µM (inactive); in the experiment with T47D, 48 µM (inactive); in the experiment on UACC-257 it was > 100 µM (inactive); in the experiment on NCI/ADR-RES, > 100 µM (inactive). Further, the GI50 in the experiment with PC-3 is > 100 µM (inactive).
